According to patent publication US20250099557A1, “ANTIBIOTIC PHARMACEUTICAL COMPOSITION CAPABLE OF SUBCUTANEOUS ADMINISTRATION” (SHANGHAI BAO PHARMACEUTICALS CO., LTD., priority 2021, published 2025):

How the values were obtained:
[1] = Compatibility study of HAase and antibiotic in solution: appearance of the solution; type: physicochemical; conditions: 8 solutions of antibiotic (two concentrations) with HAase 150-6000 units/ml in physiological saline
Experimental: The compatibility of HAase and an antibiotic was studied by preparing a solution comprising the two substances. A dry Meropenem power for injection was dissolved in physiological saline to give a concentration of 5 mg/ml and 50 mg/ml, and then HAase was added to give a final concentration of 150, 500, 2000, and 6000 units/ml respectively. After preparation, the solution was left to stand at room temperature for 15 min. The appearance of the solution was observed, and the concentration of HAase was determined.
The compatibility of HAase and an antibiotic was studied by preparing a solution comprising the two substances. A dry Ceftriaxone sodium power for injection was dissolved in physiological saline to give a concentration of 50 mg/ml and 250 mg/ml, and then HAase was added to give a final concentration of 150, 500, 2000, and 6000 units/ml respectively. After preparation, the solution was left to stand at room temperature for 15 min. The appearance of the solution was observed, and the concentration of HAase was determined.
The compatibility of HAase and an antibiotic was studied by preparing a solution comprising the two substances. A dry Azithromycin power for injection was dissolved in physiological saline to give a concentration of 10 mg/ml and 100 mg/ml, and then HAase was added to give a final concentration of 150, 500, 2000, and 6000 units/ml respectively. After preparation, the solution was left to stand at room temperature for 15 min. The appearance of the solution was observed, and the concentration of HAase was determined.
The compatibility of HAase and an antibiotic was studied by preparing a solution comprising the two substances. A dry Cefradine powder for injection was dissolved in physiological saline to give a concentration of 50 mg/ml and 250 mg/ml, and then HAase was added to give a final concentration of 150, 500, 2000, and 6000 units/ml respectively. After preparation, the solution was left to stand at room temperature for 15 min. The appearance of the solution was observed, and the concentration of HAase was determined.
The compatibility of HAase and an antibiotic was studied by preparing a solution comprising the two substances. A dry Teicoplanin powder for injection was dissolved in physiological saline to give a concentration of 10 mg/ml and 70 mg/ml, and then HAase was added to give a final concentration of 150, 500, 2000, and 6000 units/ml respectively. After preparation, the solution was left to stand at room temperature for 15 min. The appearance of the solution was observed, and the concentration of HAase was determined.
The compatibility of HAase and an antibiotic was studied by preparing a solution comprising the two substances. A dry Ceftazidime powder for injection was dissolved in physiological saline to give a concentration of 20 mg/ml and 200 mg/ml, and then HAase was added to give a final concentration of 150, 500, 2000, and 6000 units/ml respectively. After preparation, the solution was left to stand at room temperature for 15 min. The appearance of the solution was observed, and the concentration of HAase was determined.
The compatibility of HAase and an antibiotic was studied by preparing a solution comprising the two substances. A dry Ertapenem power for injection was dissolved in physiological saline to give a concentration of 30 mg/ml and 300 mg/ml, and then HAase was added to give a final concentration of 150, 500, 2000, and 6000 units/ml respectively. After preparation, the solution was left to stand at room temperature for 15 min. The appearance of the solution was observed, and the concentration of HAase was determined.
The compatibility of HAase and an antibiotic was studied by preparing a solution comprising the two substances. A dry Polymyxin B powder for injection was dissolved in physiological saline to give a concentration of 50,000 units/ml and 250,000 units/ml, and then HAase was added to give a final concentration of 150, 500, 2000, and 6000 units/ml respectively.

[2] = test system: intestinal flora; test: Effects of administration routes on the diversity of intestinal flora in mice (16S rDNA sequencing, OTU); type: in vivo; conditions: C57BL/6 mice, feces
Source text: 12 SPF grade C57BL/6 mice were used for each antibiotic mode, and divided into two groups, each having 6 mice. The two groups include an oral administration group, and a subcutaneous administration group combined with recombinant human HAase. A blank control group including 6 mice was also set. The mice in the oral administration group were given the model antibiotic solution by oral gavage for five consecutive days. The mice in the subcutaneous administration group combined with recombinant human HAase were given the same dose of model antibiotic as that in the oral administration group by subcutaneous administration for five consecutive days. The feces of mice in each group were collected on the 1 st, 2nd, 3rd, 4th, 5th, 6th, 8th, 10th and 14th days after five consecutive days of administration, and stored at −80° C., for detecting the microbial diversity later. The fecal samples of each group were amplified and sequenced by 16S rDNA sequencing. After DNA extraction, PCR amplification and gene sequencing, the changes of intestinal bacterial diversity in each group of mice were analyzed. The relative species diversity of the test group was calculated, with the OUT value of the blank control group in each day as a reference, as shown in Table 33.

[3] = in combination with recombinant human HAase for subcutaneous administration, five consecutive days, D1 after administration
[4] = in combination with recombinant human HAase for subcutaneous administration, five consecutive days, D2
[5] = in combination with recombinant human HAase for subcutaneous administration, five consecutive days, D3
[6] = in combination with recombinant human HAase for subcutaneous administration, five consecutive days, D4
[7] = in combination with recombinant human HAase for subcutaneous administration, five consecutive days, D5
[8] = in combination with recombinant human HAase for subcutaneous administration, five consecutive days, D6
[9] = in combination with recombinant human HAase for subcutaneous administration, five consecutive days, D8
[10] = in combination with recombinant human HAase for subcutaneous administration, five consecutive days, D10
[11] = in combination with recombinant human HAase for subcutaneous administration, five consecutive days, D14
[12] = oral administration for five consecutive days, D1 after administration
[13] = oral administration for five consecutive days, D2
[14] = oral administration for five consecutive days, D3
[15] = oral administration for five consecutive days, D4
[16] = oral administration for five consecutive days, D5
[17] = oral administration for five consecutive days, D6
[18] = oral administration for five consecutive days, D8
[19] = oral administration for five consecutive days, D10
[20] = oral administration for five consecutive days, D14

| SMILES | appearance of the solution [1] | Relative abundance of OUT (operational taxonomic units) [2, 3] [%] | Relative abundance of OUT (operational taxonomic units) [2, 4] [%] | Relative abundance of OUT (operational taxonomic units) [2, 5] [%] | Relative abundance of OUT (operational taxonomic units) [2, 6] [%] | Relative abundance of OUT (operational taxonomic units) [2, 7] [%] | Relative abundance of OUT (operational taxonomic units) [2, 8] [%] | Relative abundance of OUT (operational taxonomic units) [2, 9] [%] | Relative abundance of OUT (operational taxonomic units) [2, 10] [%] | Relative abundance of OUT (operational taxonomic units) [2, 11] [%] | Relative abundance of OUT (operational taxonomic units) [2, 12] [%] | Relative abundance of OUT (operational taxonomic units) [2, 13] [%] | Relative abundance of OUT (operational taxonomic units) [2, 14] [%] | Relative abundance of OUT (operational taxonomic units) [2, 15] [%] | Relative abundance of OUT (operational taxonomic units) [2, 16] [%] | Relative abundance of OUT (operational taxonomic units) [2, 17] [%] | Relative abundance of OUT (operational taxonomic units) [2, 18] [%] | Relative abundance of OUT (operational taxonomic units) [2, 19] [%] | Relative abundance of OUT (operational taxonomic units) [2, 20] [%] |
| --- | --- | --- | --- | --- | --- | --- | --- | --- | --- | --- | --- | --- | --- | --- | --- | --- | --- | --- | --- |
| CC(C)(O/N=C(\C(=O)N[C@@H]1C(=O)N2C(C(=O)[O-])=C(C[n+]3ccccc3)CS[C@H]12)c1csc(N)n1)C(=O)O [Ceftazidime] | clear and transparent | 35.5 | 34.0 | 34.3 | 33.7 | 34.3 | 35.1 | 41.6 | 42.3 | 51.3 | 22.8 | 20.9 | 20.4 | 21.1 | 19.2 | 22.3 | 26.8 | 29.6 | 32.5 |
| C[C@@H](O)[C@H]1C(=O)N2C(C(=O)O)=C(S[C@@H]3CN[C@H](C(=O)Nc4cccc(C(=O)O)c4)C3)[C@H](C)[C@H]12 [Ertapenem] | clear and transparent | 30.5 | 30.9 | 28.9 | 31.2 | 28.2 | 33.2 | 36.8 | 36.7 | 39.3 | 16.2 | 13.1 | 10.4 | 14.6 | 16.0 | 15.3 | 15.8 | 20.9 | 24.1 |
| CO/N=C(\C(=O)N[C@@H]1C(=O)N2C(C(=O)O)=C(CSc3nc(=O)c(=O)[nH]n3C)CS[C@H]12)c1csc(N)n1 [Ceftriaxone] | clear and transparent | 31.5 | 28.8 | 28.9 | 33.2 | 29.1 | 33.2 | 37.9 | 39.3 | 47.1 | 16.8 | 14.7 | 10.4 | 14.1 | 15.5 | 18.3 | 15.8 | 23.0 | 25.7 |
| CC1=C(C(=O)O)N2C(=O)[C@@H](NC(=O)[C@H](N)C3=CCC=CC3)[C@H]2SC1 [Cefradine] | clear and transparent | 35.5 | 37.2 | 36.3 | 36.2 | 36.2 | 37.1 | 42.1 | 42.9 | 48.7 | 24.4 | 23.6 | 20.4 | 22.6 | 20.7 | 24.3 | 25.8 | 28.6 | 31.9 |
